Read-outs that look alike come from different tables or passages of the source.
Assays:
mGPDH = target: T1, mGPDH (Rattus norvegicus, UniProt P35571); assay: Superoxide/H2O2 production by mGPDH in isolated skeletal muscle mitochondria (Amplex UltraRed); type: biochemical
T1 construct: Activity of mGPDH in frozen-thawed skeletal muscle mitochondria was measured; from tissue; host or cells: skeletal muscle mitochondria
T1 sequence (P35571 43-727): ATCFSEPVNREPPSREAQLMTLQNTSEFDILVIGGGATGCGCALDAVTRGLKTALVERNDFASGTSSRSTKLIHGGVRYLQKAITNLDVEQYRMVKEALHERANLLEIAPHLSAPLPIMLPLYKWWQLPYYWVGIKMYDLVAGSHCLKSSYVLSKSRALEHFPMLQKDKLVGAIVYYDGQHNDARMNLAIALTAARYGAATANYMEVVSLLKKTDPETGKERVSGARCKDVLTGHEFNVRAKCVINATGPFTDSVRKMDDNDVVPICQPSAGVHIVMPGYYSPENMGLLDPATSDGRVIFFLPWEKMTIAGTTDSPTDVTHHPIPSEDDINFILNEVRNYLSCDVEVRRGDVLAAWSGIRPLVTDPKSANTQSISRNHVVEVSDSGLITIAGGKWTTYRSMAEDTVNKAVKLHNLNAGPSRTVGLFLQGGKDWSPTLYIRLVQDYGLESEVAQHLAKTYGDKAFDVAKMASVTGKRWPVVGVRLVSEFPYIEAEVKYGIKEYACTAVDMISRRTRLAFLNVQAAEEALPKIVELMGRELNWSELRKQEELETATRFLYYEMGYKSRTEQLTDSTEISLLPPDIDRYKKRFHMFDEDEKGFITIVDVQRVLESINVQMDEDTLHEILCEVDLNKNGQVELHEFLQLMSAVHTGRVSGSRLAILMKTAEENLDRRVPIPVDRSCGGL

[1] = target: T2, flavin site of complex II (site IIF) (Rattus norvegicus, UniProt Q920L2); assay: Site-specific H2O2 production from site IIF in skeletal muscle mitochondria; type: biochemical; settings: primary screen, ∼2.5 µM, average of duplicates; palmitoylcarnitine
T2 construct: from tissue; host or cells: skeletal muscle mitochondria
In short: (§1)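 Isolated rat skeletal muscle mitochondria; H2O2 read by Amplex UltraRed with added SOD and HRP. Site IF/DH: 5 mM glutamate, 5 mM malate, 4 µM rotenone. Site IIF: palmitoylcarnitine or succinate with rotenone/antimycin A/myxothiazol. Site IIIQo: succinate, rotenone, antimycin A. Screen at 2.5 µM, normalised as % change from DMSO.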

[2] = target: T3, outer ubiquinone-binding site of complex III (site IIIQo) (Rattus norvegicus, UniProt P00159+P20788); assay: Site-specific H2O2 production from site IIIQo in skeletal muscle mitochondria; type: biochemical; settings: primary screen, ∼2.5 µM, average of duplicates; 5 mM succinate
T3 construct: from tissue; host or cells: skeletal muscle mitochondria
In short: as §1

[3] = system: skeletal muscle mitochondria; assay: Mitochondrial membrane potential (ΔΨm, TMRM) powered by succinate; type: biochemical, rat
Experimental: Mitochondrial membrane potential (ΔΨm) was estimated fluorimetrically as described previously on the Varian fluorimeter, except the potentiometric dye TMRM was used in quench-mode in place of safranine O [34]. […] The effect of putative small-molecule inhibitors was normalized as the % change in fluorescence between vehicle treatment and complete depolarization by the uncoupler carbonyl cyanide-4-(trifluoromethoxy)phenylhydrazone (FCCP, 2 µM) added at the end of each run. When indicated, the K^+/H^+ exchanger nigericin (80 ng ⋅ ml^−1) was added to collapse the pH gradient across the mitochondrial inner membrane (ΔpH) and maximize ΔΨm.
The assay buffer for both H2O2 and ΔΨm measurements was 120 mM KCl, 5 mM HEPES, 1 mM EGTA, 0.3% (w/v) BSA without or with 250 nM free calcium at pH 7.0. All assays were performed with stirring at 37°C.
Structure/activity analysis was performed on 18 structural analogs of two structurally-related hits from the primary screen (iGP-1 and iGP-2). These 20 compounds were tested in duplicate at 0.08–80 µM (0.1% DMSO final) in microplate format for effects on site-specific H2O2 production as described above. Additionally, four microplate assays for ΔΨm were run in parallel to the H2O2 assays. These assays were as described under “Measurement of mitochondrial H2O2 production and membrane potential” except that each substrate condition was assayed in a separate microplate. […] Plates were incubated in the dark at room temperature for 30–40 min (H2O2) or 10–15 min (ΔΨm) after the addition of substrate, and endpoint fluorescence was measured on the Victor plate reader. Endpoints were chosen for the H2O2 assays to provide good signal-to-noise ratios and linear rates of change without the indicator dye limiting the reaction. Endpoints for the ΔΨm assays were determined in pilot experiments as the times for TMRM accumulation to reach a steady state. […] Endpoint fluorescence values were normalized as described in the previous section with wells containing FCCP serving as positive controls for the ΔΨm assays.

T2 sequence (Q920L2 35-656): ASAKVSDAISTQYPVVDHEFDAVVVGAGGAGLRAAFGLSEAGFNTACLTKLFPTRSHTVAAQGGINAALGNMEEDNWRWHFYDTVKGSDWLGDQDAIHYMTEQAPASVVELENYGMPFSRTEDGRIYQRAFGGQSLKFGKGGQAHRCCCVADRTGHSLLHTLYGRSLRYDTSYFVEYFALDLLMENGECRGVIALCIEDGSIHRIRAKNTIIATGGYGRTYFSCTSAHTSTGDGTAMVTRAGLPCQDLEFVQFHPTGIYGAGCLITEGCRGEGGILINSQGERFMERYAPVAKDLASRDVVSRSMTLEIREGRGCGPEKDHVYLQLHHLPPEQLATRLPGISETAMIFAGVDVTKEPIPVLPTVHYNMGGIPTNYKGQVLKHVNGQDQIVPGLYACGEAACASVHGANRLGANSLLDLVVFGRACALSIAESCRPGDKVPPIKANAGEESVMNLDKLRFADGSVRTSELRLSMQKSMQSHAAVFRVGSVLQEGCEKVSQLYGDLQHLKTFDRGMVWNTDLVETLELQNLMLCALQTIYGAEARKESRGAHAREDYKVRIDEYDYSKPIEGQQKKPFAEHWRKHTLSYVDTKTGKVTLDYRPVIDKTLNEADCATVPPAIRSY
T2 sequence (P21913 31-282 partner): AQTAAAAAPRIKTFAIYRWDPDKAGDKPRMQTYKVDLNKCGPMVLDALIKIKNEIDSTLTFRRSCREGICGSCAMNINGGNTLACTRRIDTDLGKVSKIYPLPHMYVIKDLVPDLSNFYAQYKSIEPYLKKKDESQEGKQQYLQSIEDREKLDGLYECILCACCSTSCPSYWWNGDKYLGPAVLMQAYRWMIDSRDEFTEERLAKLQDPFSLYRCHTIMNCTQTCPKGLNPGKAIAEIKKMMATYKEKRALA
T2 sequence (Q641Z9 30-169 partner limits assumed): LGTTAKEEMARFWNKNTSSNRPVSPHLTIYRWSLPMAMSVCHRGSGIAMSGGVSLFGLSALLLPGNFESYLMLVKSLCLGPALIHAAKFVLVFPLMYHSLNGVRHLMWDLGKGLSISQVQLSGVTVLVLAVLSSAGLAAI
T2 sequence (Q6PCT8 57-159 partner): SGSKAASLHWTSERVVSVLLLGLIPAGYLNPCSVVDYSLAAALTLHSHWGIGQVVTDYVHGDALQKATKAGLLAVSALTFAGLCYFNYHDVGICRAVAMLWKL

Q: Which results are given for `O=C(O)CCC(=O)Nc1ccc(-c2nc3ccccc3[nH]2)cc1` [iGP-1]?
A: IC50 (mGPDH; Fig. 4 structure/activity microplate assay, 0.08–80 µM, estimated, means of two replicates, read-out: mGPDH H2O2 production IC50): 8 µM; IC50 (mGPDH; Fig. 9B, read-out: mGPDH H2O2 Production IC50): 13.6 ± 1.3 µM; mGPDH (% change from DMSO) (mGPDH; primary screen, ∼2.5 µM, average of duplicates, 16.7 mM glycerol phosphate, no added calcium): -21.6%; inhibition at 80 µM (mGPDH; read-out: mGPDH H2O2 production (% change at 80 μM)): 55%; IC50 (mGPDH; titration up to 80 µM (Fig. 6B, Fig. 7B), read-out: half-maximal effect on H2O2 production by mGPDH): ~8 µM; IIF (% change from DMSO) [1]: 3.6%; IIIQo (% change from DMSO) [2]: -0.246%; effect on ΔΨm powered by 0.5 mM succinate ([3]; 80 µM, 0.5 mM succinate): significantly decreased; effect on ΔΨm powered by 5 mM succinate ([3]; 5 mM succinate): no effect
